Source: PubChem BioAssay AID735 (The Scripps Research Institute Molecular Screening Center, 2007)
Activity calls are given as the source filed them. The rule behind the calls is not given here.

Biological target: Collagenase 3 (Homo sapiens) (UniProt P45452)
Assay: MMP13 activity inhibition curves – biochemical, dose response (AID 735)
Conditions: recombinant MMP13 enzymatic activity assay

IC50	SMILES
inactive	CCOC(=O)/C(C#N)=C1/C=Nc2ccccc2N1
> 39.8 µM (inactive)	COc1cc(-n2nc(C)c3c2OC(N)=C(C#N)C3c2ccccc2)c(Cl)c(Br)c1O (configuration not stated)
